The values below come from ChEMBL document CHEMBL4837220, “Development of tricyclic N-benzyl-4-hydroxybutanamide derivatives as inhibitors of GABA transporters mGAT1-4 with anticonvulsant, antinociceptive, and antidepressant activity” (Eur J Med Chem, 2021).

One assay concerns the target T1, GABA transporter 4 (Mus musculus, UniProt P31650).
T1 sequence (P31650 whole entry): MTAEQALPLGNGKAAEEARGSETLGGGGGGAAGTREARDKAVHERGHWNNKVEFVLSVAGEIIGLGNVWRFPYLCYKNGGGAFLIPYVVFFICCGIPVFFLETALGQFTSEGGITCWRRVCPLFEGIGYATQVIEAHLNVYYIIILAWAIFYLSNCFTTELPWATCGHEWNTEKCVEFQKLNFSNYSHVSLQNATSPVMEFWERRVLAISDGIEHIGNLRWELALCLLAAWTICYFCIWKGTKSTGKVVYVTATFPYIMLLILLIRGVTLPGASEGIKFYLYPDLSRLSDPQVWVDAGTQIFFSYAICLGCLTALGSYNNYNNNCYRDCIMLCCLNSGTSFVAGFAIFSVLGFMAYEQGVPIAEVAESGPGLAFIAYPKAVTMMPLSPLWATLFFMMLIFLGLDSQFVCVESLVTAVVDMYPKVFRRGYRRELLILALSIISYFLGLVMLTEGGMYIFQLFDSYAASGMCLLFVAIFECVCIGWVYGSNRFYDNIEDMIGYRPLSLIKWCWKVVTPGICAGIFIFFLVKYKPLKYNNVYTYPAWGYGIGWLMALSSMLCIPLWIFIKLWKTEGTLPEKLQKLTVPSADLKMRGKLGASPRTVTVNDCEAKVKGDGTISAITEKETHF
The assay is described as follows: Inhibition of mouse GAT4 expressed in human HEK293 cell line assessed as inhibition of [3H]GABA uptake measured after 40 mins by […]. The class given is cell-based.

Assay [1] concerns the target Sodium- and chloride-dependent GABA transporter 1 (Mus musculus) (UniProt P31648). The assay is described as follows: Residual NO711 binding to mouse GAT1 expressed in human HEK293 cell line at 100 uM by MS binding assay relative to control.
Assay [2] has as its target T2, Sodium- and chloride-dependent GABA transporter 1 (Mus musculus, UniProt P31648). The experiment in a line: Inhibition of mouse GAT1 expressed in human HEK293 cell line assessed as inhibition of [3H]GABA uptake measured after 40 mins by […]. The assay is classed as cell-based.
In a further assay the target is T3, GABA transporter 2 (Mus musculus, UniProt P31651).
T3 sequence (P31651 whole entry): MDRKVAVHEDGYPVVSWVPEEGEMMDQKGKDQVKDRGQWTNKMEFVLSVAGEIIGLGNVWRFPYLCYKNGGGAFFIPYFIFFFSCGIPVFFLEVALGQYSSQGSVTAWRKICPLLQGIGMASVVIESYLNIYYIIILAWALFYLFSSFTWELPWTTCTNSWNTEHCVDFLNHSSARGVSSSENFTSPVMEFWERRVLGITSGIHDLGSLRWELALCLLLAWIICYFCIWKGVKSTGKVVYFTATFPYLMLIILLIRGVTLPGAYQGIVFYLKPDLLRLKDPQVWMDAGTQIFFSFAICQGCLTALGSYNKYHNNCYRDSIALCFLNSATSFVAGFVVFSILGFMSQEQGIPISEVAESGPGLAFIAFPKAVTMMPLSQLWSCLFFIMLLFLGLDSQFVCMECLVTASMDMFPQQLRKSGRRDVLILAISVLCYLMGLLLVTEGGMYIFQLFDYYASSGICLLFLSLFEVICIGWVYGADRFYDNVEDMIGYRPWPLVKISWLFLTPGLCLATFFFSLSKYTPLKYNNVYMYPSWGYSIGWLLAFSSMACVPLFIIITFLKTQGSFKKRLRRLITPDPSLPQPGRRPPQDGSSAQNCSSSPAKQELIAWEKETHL
The experiment in a line: Inhibition of mouse GAT2 expressed in human HEK293 cell line assessed as inhibition of [3H]GABA uptake measured after 40 mins by […]. The assay is classed as cell-based.

Assay [3] concerns the target GABA transporter 3 (Mus musculus, Slc6a13). The experiment in a line: Inhibition of mouse GAT3 expressed in human HEK293 cell line assessed as inhibition of [3H]GABA uptake measured after 40 mins by […].
In assay [4] the target is T2, Sodium- and chloride-dependent GABA transporter 1. The experiment in a line: Inhibition of NO711 binding to mouse GAT1 expressed in human HEK293 cell line by MS binding assay.
Another assay relates to Mus musculus. The experiment in a line: Anticonvulsant activity in CD-1 mouse assessed as elevation of seizure threshold at 10 mg/kg, ip measured by electroconvulsive threshold test relative to control. The class given is functional, organism-based.
The target of assay [5] is T4, GABA transporter 2 (Mus musculus) (UniProt P31651).
T4 sequence (whole entry): T3 sequence (P31651 whole entry)
The experiment in a line: Inhibition of mouse GAT2 expressed in human HEK293 cell line assessed as residual [3H]GABA uptake at 100 uM measured after 40 mins by […].

Activity calls are given as the source filed them.

Regarding `CN(CCC=C1c2ccccc2-c2ccccc21)C(CCO)C(=O)NCc1ccccc1` (centres undefined), the IC50 at GABA transporter 4 is 25.1 µM; in assay [2], 24 µM; on GABA transporter 2, 17.8 µM. The compound also yielded a residual activity in assay [1] of 75%.
For `O=C(O)[C@@H]1CCCN(CCC=C2c3ccccc3-c3ccccc32)C1`, the IC50 in assay [2] is 2 µM.
For `CN(CCC=C1c2ccccc2C=Cc2ccccc21)C(CCO)C(=O)NCc1ccccc1Cl` (centres undefined), the results for the 50% inhibitory concentration (IC50) (on GABA transporter 4; in assay [2]; at GABA transporter 2) were 9.55 µM, 20.9 µM and 6.76 µM, respectively. Also, in assay [1], the residual activity stood at 69%.
On to `CC(=O)NCCC(C(=O)NCc1ccccc1)N(C)CCC=C1c2ccccc2CCc2ccccc21` (centres undefined), for which the IC50 on GABA transporter 4 was 17.8 µM; in assay [2] it was 28.8 µM; on GABA transporter 2 it was 37.2 µM. Further, the residual activity in assay [1] came out at 77%.
On to `CN(CCC=C1c2ccccc2C=Cc2ccccc21)C(CCO)C(=O)NCc1ccc(F)cc1` (centres undefined), for which the IC50 at GABA transporter 4 was 13.5 µM; in assay [2], 21.9 µM; at GABA transporter 2, 10.2 µM. The same compound gave a residual activity in assay [1] of 71%.
As for `CC(=O)NCCC(C(=O)NCc1ccccc1Cl)N(C)CCC=C(c1sccc1C)c1sccc1C` (centres undefined), the negative logarithm of the IC50 (pIC50) in assay [3] came out at 5.61. The IC50 at GABA transporter 2 is 4.47 µM.
For `CN(CCC=C1c2ccccc2CCc2ccccc21)C(CCO)C(=O)NCc1ccccc1` (centres undefined), the IC50 was 17 µM at GABA transporter 4, 20 µM in assay [2] and 9.12 µM on GABA transporter 2. The residual activity in assay [1] stood at 51%.
`CN(CCC=C1c2ccccc2C=Cc2ccccc21)C(CCO)C(=O)NCc1ccc(Cl)cc1` (centres undefined): the IC50 on GABA transporter 4 was 15.8 µM; in assay [2], 69.2 µM; on GABA transporter 2 it was 14.5 µM. The residual activity in assay [1] is 63%.
`CN(CCC=C(c1ccccc1)c1ccccc1)C(CCN)C(=O)NCc1ccccc1Cl` (centres undefined): the pKi in assay [4] stood at 4.96.
`CC(=O)NCCC(C(=O)NCc1ccc(Cl)cc1)N(C)CCC=C1c2ccccc2CCc2ccccc21` (centres undefined): the IC50 at GABA transporter 4 is 12.6 µM; in assay [2] it was 28.2 µM; on GABA transporter 2, 47.9 µM. For the same compound, the residual activity in assay [1] turned out to be 90%.
As to `CN(CCC=C(c1ccccc1)c1ccccc1)C(CCO)C(=O)NCc1ccccc1Cl` (centres undefined), the values for the IC50 on GABA transporter 4 and on GABA transporter 2 were 10 µM and 12.6 µM, respectively. In assay [1], this compound displayed a residual activity of 54%. In addition, the negative logarithm of the IC50 (pIC50) in assay [3] was 5.14.
On to `O=C(O)C1CCCN(CCC=C2c3ccccc3CCc3ccccc32)C1` (centres undefined), for which the concentration for half-maximal inhibition (IC50) in assay [2] was 13.5 µM.
Regarding `CN(CCC=C1c2ccccc2CCc2ccccc21)C(CCN)C(=O)NCc1ccccc1Cl` (centres undefined), the half-maximal inhibitory concentration (IC50) was 4.9 µM on GABA transporter 4, 6.61 µM in assay [2] and 13.5 µM on GABA transporter 2. This compound returned a pKi in assay [4] of 4.87.
For `CC(=O)NCCC(C(=O)NCc1ccc(F)cc1)N(C)CCC=C1c2ccccc2CCc2ccccc21` (centres undefined), the concentration for half-maximal inhibition (IC50) at GABA transporter 4 is 11.2 µM; in assay [2] it was 13.8 µM; on GABA transporter 2, 19.5 µM. For the same compound, the residual activity in assay [1] turned out to be 71%.
In the case of `Cc1ccc(CNC(=O)C(CCO)N(C)CCC=C2c3ccccc3C=Cc3ccccc32)cc1` (centres undefined), the 50% inhibitory concentration (IC50) was 9.12 µM at GABA transporter 4, 27.5 µM in assay [2] and 9.77 µM at GABA transporter 2. The same compound returned a residual activity in assay [1] of 55%.
In the case of `Cc1ccc(CNC(=O)C(CCN)N(C)CCC=C2c3ccccc3CCc3ccccc32)cc1` (centres undefined), the 50% inhibitory concentration (IC50) on GABA transporter 4 is 6.46 µM; in assay [2] it was 7.24 µM; at GABA transporter 2 it was 11.2 µM. In assay [4], this compound registered a pKi of 5.14.
Regarding `CC(=O)NCCC(C(=O)NCc1ccc(C)cc1)N(C)CCC=C1c2ccccc2CCc2ccccc21` (centres undefined), the IC50 was 13.5 µM at GABA transporter 4, 13.8 µM in assay [2] and 15.5 µM at GABA transporter 2. Besides, the residual activity in assay [1] was determined as 69%.
For the compound `O=C(O)C1=CCCN(CCO/N=C/c2ccccc2-c2ccc(Cl)cc2Cl)C1`, the result in the assay on Mus musculus was inactive. Besides, the negative-log IC50 (pIC50) in assay [3] is 4.35. The same compound returned a pKi in assay [4] of 8.29. The half-inhibitory concentration (IC50) at GABA transporter 2 was 49 µM.
For `CN(CCC=C1c2ccccc2CCc2ccccc21)C(CCO)C(=O)NCc1ccc(F)cc1` (centres undefined), the half-maximal inhibitory concentration (IC50) at GABA transporter 4 was 13.2 µM; in assay [2], 21.9 µM; on GABA transporter 2, 5.75 µM. Also, the residual activity in assay [1] turned out to be 81%.
Turning to `COc1ccc(C(OCCN2CCC[C@H](C(=O)O)C2)(c2ccc(OC)cc2)c2ccc(-c3ccc(C=O)cc3)cc2)cc1`, the half-inhibitory concentration (IC50) at GABA transporter 4 is 1.29 µM; in assay [2] it was 72.4 µM. Moreover, the residual activity in assay [1] is 77%; in assay [5] it was 73%.
Turning to `CN(CCC=C1c2ccccc2CCc2ccccc21)C(CCN)C(=O)NCc1ccccc1` (centres undefined), the IC50 was 4.68 µM at GABA transporter 4, 8.13 µM in assay [2] and 9.55 µM at GABA transporter 2. Also, in assay [4], the pKi was 4.78.
On to `CN(CCC=C1c2ccccc2-c2ccccc21)C(CCO)C(=O)NCc1ccc(F)cc1` (centres undefined), for which the IC50 on GABA transporter 4 is 35.5 µM; in assay [2], 37.2 µM; on GABA transporter 2, 25.7 µM. For the same compound, the residual activity in assay [1] came to 90%.
For `CN(CCC=C1c2ccccc2CCc2ccccc21)C(CCO)C(=O)NCc1ccc(Cl)cc1` (centres undefined) the same measures were 15.8 µM, 10 µM, 7.76 µM and 79%.
Consider `CN(CCC=C1c2ccccc2CCc2ccccc21)C(CCO)C(=O)NCc1ccccc1Cl` (centres undefined), for which the IC50 on GABA transporter 4 was 15.8 µM; in assay [2] it was 25.1 µM; at GABA transporter 2, 11 µM. Besides, the residual activity in assay [1] amounted to 82%.
With `Cc1ccc(CNC(=O)C(CCO)N(C)CCC=C2c3ccccc3-c3ccccc32)cc1` (centres undefined), the IC50 on GABA transporter 4 was 30.9 µM; in assay [2], 31.6 µM; on GABA transporter 2, 30.2 µM. Also, the residual activity in assay [1] came to 99%.
Regarding `CN(CCC=C1c2ccccc2CCc2ccccc21)C(CCN)C(=O)NCc1ccc(F)cc1` (centres undefined), the IC50 on GABA transporter 4 was 4.37 µM; in assay [2], 6.31 µM; on GABA transporter 2, 11.7 µM. In assay [4], this compound gave a pKi of 4.96.
As for `CC(=O)NCCC(C(=O)NCc1ccccc1Cl)N(C)CCC=C1c2ccccc2CCc2ccccc21` (centres undefined), the half-inhibitory concentration (IC50) is 18.6 µM at GABA transporter 4, 28.8 µM in assay [2] and 26.3 µM at GABA transporter 2. For the same compound, the residual activity in assay [1] amounted to 87%.
For `CN(CCC=C1c2ccccc2-c2ccccc21)C(CCO)C(=O)NCc1ccccc1Cl` (centres undefined) the same measures were 26.9 µM, 33.1 µM, 25.7 µM and 93%.
Regarding `CN(CCC=C1c2ccccc2CCc2ccccc21)C(CCN)C(=O)NCc1ccc(Cl)cc1` (centres undefined), the IC50 at GABA transporter 4 is 5.62 µM; in assay [2] it was 6.31 µM; at GABA transporter 2, 11 µM. In assay [4], this compound had a negative logarithm of the Ki (pKi) of 4.6.
For the compound `CN(CCC=C1c2ccccc2-c2ccccc21)C(CCO)C(=O)NCc1ccc(Cl)cc1` (centres undefined), the IC50 was 44.7 µM on GABA transporter 4, 42.7 µM in assay [2] and 32.4 µM on GABA transporter 2. In assay [1], this compound had a residual activity of 91%.

In general, IC50 refers to the concentration that inhibits the measured activity by half. Usually residual activity stands for what remains of the control signal, in per cent. Usually pIC50 stands for the negative decadic logarithm of the IC50, by convention in mol/L. As a reminder, the pKi is the negative decadic logarithm of the Ki, by convention in mol/L. Read a low pKi as a high Ki.
